Results reported in paper PMC3540140 (Journal of molecular biology, 2012).

B1: peptide fragment of JIP1 (pepJIP1) (peptide)
peptide: RPKRPTTLNLF

Legend:
JNK1 = JNK1 (Homo sapiens, UniProt P45983); assay: IMAP-based FP kinase assay; type: biochemical
[1] = target: C-terminal truncated form of human JNK1α1 (residues 1–364) (human, UniProt P45983-2 1-364); assay: crystal structure
C-terminal truncated form of human JNK1α1 (residues 1–364), sequence (P45983 1-364): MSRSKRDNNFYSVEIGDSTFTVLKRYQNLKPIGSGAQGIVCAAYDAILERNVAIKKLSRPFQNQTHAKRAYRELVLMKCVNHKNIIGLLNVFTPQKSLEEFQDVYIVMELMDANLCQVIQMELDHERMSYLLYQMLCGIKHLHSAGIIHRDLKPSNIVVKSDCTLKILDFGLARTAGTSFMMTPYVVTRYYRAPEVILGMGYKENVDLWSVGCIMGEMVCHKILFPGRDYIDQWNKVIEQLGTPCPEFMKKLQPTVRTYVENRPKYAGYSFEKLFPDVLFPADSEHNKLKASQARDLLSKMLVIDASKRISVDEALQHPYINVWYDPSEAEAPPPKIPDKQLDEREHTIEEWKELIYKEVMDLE

Molecule | IC50 (JNK1) [µM] | binding result [1]
B1 | – | binds
